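Following 48 hours of exposure in 96-well plates, responses at five concentrations were used to interpolate endpoints linearly. GI50 marks 50% less growth.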 Calls of active or inactive are those of the source. No stated cut-off is given here; in the data, active = GI50 up to about 1.1 µM and inactive = higher. Bounds are passed on as bounds.

Common to all, as to assay: NCI anticancer screen, dose series, 48 h
The subject of assay [1] is 786-0.
In assay [2] the test system is ACHN.
Assay [3] deals with CAKI-1.
In assay [4] the test system is HCT-116.
For assay [5], the system named is HL-60.
Assay [6] relates to HOP-62.
In assay [7] the test system is HOP-92.
Assay [8] has as its system K562.
Assay [9] has as its system NCI-H226.
Assay [10] concerns OVCAR-3.
For assay [11], the system named is OVCAR-4.
Assay [12] relates to OVCAR-5.
In assay [13] the test system is OVCAR-8.
Assay [14] deals with RPMI-8226.
Assay [15] deals with SF-539.
Assay [16] has as its system SNB-19.
Assay [17] deals with UACC-257.
The subject of assay [18] is EKVX.
Assay [19] relates to MDA-MB-435.

Consider `O=c1[nH]c2cc([N+](=O)[O-])ccc2nc1/C(=N\NO)C(O)c1ccc([N+](=O)[O-])cc1` (stereo not given), for which the GI50 in assay [1] was > 100 µM (inactive); in [2] it was 52.5 µM (inactive); in assay [3], 50.2 µM (inactive); in assay [4], > 100 µM (inactive); in [5], 79.4 µM (inactive); in assay [6], > 100 µM (inactive). The GI50 in [7], in [8], in assay [9], in assay [10], in [11] and in assay [12] was > 100 µM (inactive) in each case. The GI50 was > 100 µM (inactive) in assay [13]; > 100 µM (inactive) in assay [14]; 31.3 µM (inactive) in assay [15]; > 100 µM (inactive) in assay [16]; > 100 µM (inactive) in [17].

Consider `O=C1Nc2cc(F)ccc2C1=O`, for which the GI50 in assay [1], in [2], in assay [3], in assay [18], in [5] and in assay [6] was > 100 µM (inactive) in each case. The GI50 in assay [7], in assay [8], in [9], in assay [11], in [12] and in [13] was > 100 µM (inactive) in each case. Further, the GI50 in assay [14], in [15], in assay [16] and in assay [17] was > 100 µM (inactive) in each case.

`O=C(CC(=O)c1cccc([N+](=O)[O-])c1)C(=O)Nc1nc([N+](=O)[O-])cs1`: the GI50 in assay [1] is > 100 µM (inactive); in assay [3] it was 83.8 µM (inactive); in assay [18] it was > 100 µM (inactive); in [4], > 100 µM (inactive); in [5], > 100 µM (inactive); in assay [6] it was > 100 µM (inactive). Besides, the GI50 in assay [7] is > 100 µM (inactive); in assay [8], 94.8 µM (inactive); in [9], > 100 µM (inactive); in [10], > 100 µM (inactive); in assay [11], 0.0307 µM (active); in assay [12], > 100 µM (inactive). The GI50 in assay [13] was > 100 µM (inactive); in [14], 65 µM (inactive); in assay [15] it was > 100 µM (inactive); in assay [16], > 100 µM (inactive); in assay [17], > 100 µM (inactive).

For the compound `CC(Nc1ccc(S(=O)(=O)NC(=N)N)cc1)c1c2ccccc2nc2ccccc12` (stereo not given), the GI50 in assay [1] was 36 µM (inactive); in [2], 24.7 µM (inactive); in assay [3] it was 19 µM (inactive); in [18], 25.5 µM (inactive); in assay [4] it was > 10 µM (inactive); in assay [5] it was 14.5 µM (inactive). For the same compound, the GI50 in [7] was 18.5 µM (inactive); in assay [8], 27.6 µM (inactive); in assay [9], 19.6 µM (inactive); in assay [10] it was > 10 µM (inactive); in assay [11] it was 10.1 µM (inactive); in [12] it was 20.2 µM (inactive). The GI50 was 23.9 µM (inactive) in assay [13]; 16.3 µM (inactive) in assay [14]; 22.9 µM (inactive) in [15]; 40 µM (inactive) in assay [16]; 35.3 µM (inactive) in assay [17].

For the compound `[O-][S+]1Nc2c(Cl)cc(Cl)c(Cl)c2S1` (stereo not given), the GI50 in assay [1] was > 100 µM (inactive); in assay [2], > 100 µM (inactive); in assay [3] it was 41.2 µM (inactive); in [18], > 100 µM (inactive); in assay [4], > 100 µM (inactive); in assay [5], 32.7 µM (inactive). For the same compound, the GI50 in assay [6] was > 100 µM (inactive); in assay [7], 35.2 µM (inactive); in [8] it was 74.3 µM (inactive); in assay [9], > 100 µM (inactive); in assay [10], 78.2 µM (inactive); in assay [11], > 100 µM (inactive). Moreover, the GI50 in assay [12], in [13], in assay [14], in assay [15], in assay [16] and in assay [17] was > 100 µM (inactive) each time.

For `COc1ccc(/N=N/c2c(-c3ccccc3)nn(C(=O)CC(=O)Nc3ccc(OC)cc3)c2-c2ccccc2)cc1`, the GI50 in [1] is 48.6 µM (inactive); in [2], 97.3 µM (inactive); in assay [3], > 100 µM (inactive); in assay [18] it was 71.1 µM (inactive); in assay [4] it was 60 µM (inactive); in [5] it was > 100 µM (inactive). The GI50 in [6] was 23.4 µM (inactive); in assay [7] it was 16 µM (inactive); in [8], 27 µM (inactive); in assay [9], > 100 µM (inactive); in [10] it was > 100 µM (inactive); in assay [11], > 100 µM (inactive). Besides, the GI50 is > 100 µM (inactive) in [12]; > 100 µM (inactive) in assay [13]; > 100 µM (inactive) in [14]; 18.6 µM (inactive) in [15]; 29.9 µM (inactive) in assay [16]; > 100 µM (inactive) in assay [17].

Take `O=C(NC(Cc1ccc(Br)cc1)C(=O)O)c1ccc(I)cc1` (stereo not given): the GI50 in [3] is > 100 µM (inactive); in assay [18], > 52 µM (inactive); in assay [4], > 100 µM (inactive); in assay [5] it was > 100 µM (inactive); in assay [6], > 100 µM (inactive); in assay [7] it was 65.3 µM (inactive). Moreover, the GI50 was > 100 µM (inactive) in assay [8]; > 100 µM (inactive) in assay [9]; > 69.7 µM (inactive) in assay [10]; 75.3 µM (inactive) in assay [11]; > 100 µM (inactive) in assay [12]; > 100 µM (inactive) in assay [13]. The GI50 in assay [14] was > 68.9 µM (inactive); in [15], > 100 µM (inactive); in assay [16] it was > 81.3 µM (inactive); in [17] it was > 100 µM (inactive).

For the compound `Cc1ccc2oc(=O)cc(CC(=O)O)c2c1`, the GI50 in assay [1], in assay [2], in assay [3], in assay [18], in assay [4] and in [5] was > 100 µM (inactive) throughout. For the same compound, the GI50 in [6], in assay [7], in assay [8], in assay [9], in assay [10] and in [11] was > 100 µM (inactive) each time. Also, the GI50 in assay [12], in assay [13], in assay [14], in assay [15] and in [16] was > 100 µM (inactive) each time.

For the compound `C1=Cc2nc1c(-c1ccccc1)c1ccc([n-]1)c(-c1ccccc1)c1nc(c(-c3ccccc3)c3ccc([n-]3)c2-c2ccccc2)C=C1.[Zn+2]`, the GI50 in assay [1] was > 100 µM (inactive); in [2], > 100 µM (inactive); in [3], > 100 µM (inactive); in assay [18], > 100 µM (inactive); in assay [4], > 100 µM (inactive); in assay [5] it was 45 µM (inactive). Further, the GI50 in assay [6] is 19.9 µM (inactive); in assay [7], > 100 µM (inactive); in [8], > 100 µM (inactive); in assay [9], > 100 µM (inactive); in [10] it was > 100 µM (inactive); in assay [11] it was > 100 µM (inactive). The GI50 is > 100 µM (inactive) in assay [12]; > 100 µM (inactive) in assay [13]; 75.7 µM (inactive) in assay [14]; > 100 µM (inactive) in assay [15]; > 100 µM (inactive) in [16]; > 100 µM (inactive) in assay [17].

With `O=C1/C(=C/c2ccccc2)CNC/C1=C\c1ccccc1`, the GI50 in assay [1] was 1.57 µM (inactive); in assay [2], 2.05 µM (inactive); in assay [3], 5.65 µM (inactive); in [18], 4.78 µM (inactive); in assay [4], 0.184 µM (active); in assay [5] it was 0.406 µM (active). Moreover, the GI50 was 2.84 µM (inactive) in assay [6]; 8.13 µM (inactive) in [7]; 0.52 µM (active) in [8]; 2.42 µM (inactive) in [9]; 1.42 µM (inactive) in assay [10]; 1.43 µM (inactive) in [11]. Also, the GI50 in assay [12] was 2.44 µM (inactive); in assay [13], 1.71 µM (inactive); in assay [14], 0.221 µM (active); in [15], 1.56 µM (inactive); in [16], 3.28 µM (inactive); in [17] it was 5.51 µM (inactive).

As to `CC1(CO)COC(C)(C)OC1`, the GI50 in assay [2], in [4], in assay [7], in assay [19], in assay [9] and in [10] was > 100 µM (inactive) each time. Besides, the GI50 in assay [11], in assay [13], in [16] and in assay [17] was > 100 µM (inactive) throughout.

`Cc1c(C(=O)CC(=O)C(=O)Nc2c(C(C)C)cccc2C(C)C)[n+]([O-])c2ccccc2[n+]1[O-]`: the GI50 in assay [1] is 5.21 µM (inactive); in assay [2] it was 2.52 µM (inactive); in assay [3] it was 22 µM (inactive); in assay [18] it was 13.8 µM (inactive); in assay [4] it was 2.81 µM (inactive); in [5], 2.4 µM (inactive). For the same compound, the GI50 in assay [6] was 29.7 µM (inactive); in assay [7], 16.1 µM (inactive); in assay [8], 6.12 µM (inactive); in [9] it was 22.6 µM (inactive); in assay [10] it was 2.08 µM (inactive); in [11], 3.48 µM (inactive). Further, the GI50 was 21.3 µM (inactive) in assay [12]; 2.57 µM (inactive) in assay [13]; 3.18 µM (inactive) in assay [14]; 4.43 µM (inactive) in [15]; 7.73 µM (inactive) in [16]; 3.36 µM (inactive) in assay [17].

For the origin of these results see ChEMBL document CHEMBL1201862, “PubChem BioAssay data set” (2004).
